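Where inhibition never reached the appropriate level, the endpoint shown equals the highest concentration tested. Otherwise, values were interpolated linearly from a five-concentration, 48-hour dose response in 96-well plates. At the GI50, growth is halved. Definition used: TGI = concentration required for complete inhibition of growth.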
Experiments:
Assay in all cases: DTP human tumour cell line panel, 48 h
[1] = test system: NCI-H23 lung
[2] = test system: NCI-H460 lung
[3] = test system: NCI-H522 lung
[4] = test system: NCI/ADR-RES ovarian
[5] = test system: OVCAR-3 ovarian
[6] = test system: OVCAR-4 ovarian
[7] = test system: OVCAR-5 ovarian
[8] = test system: OVCAR-8 ovarian
[9] = test system: PC-3 prostate
[10] = test system: RPMI-8226 leukemia
[11] = test system: RXF 393 renal
[12] = test system: SF-268 CNS
[13] = test system: SF-295 CNS
[14] = test system: SF-539 CNS
[15] = test system: SK-MEL-2 melanoma
[16] = test system: SK-MEL-28 melanoma
[17] = test system: SK-MEL-5 melanoma
[18] = test system: SK-OV-3 ovarian
[19] = test system: SN12C renal
[20] = test system: SNB-19 CNS
[21] = test system: SNB-75 CNS
[22] = test system: SR leukemia
[23] = test system: SW-620 colon
[24] = test system: T-47D breast
[25] = test system: TK-10 renal
[26] = test system: U251 CNS
[27] = test system: UACC-257 melanoma
[28] = test system: UACC-62 melanoma
[29] = test system: UO-31 renal

Compound CC(=O)c1ccc2c(c1)c1cc(C(C)=O)ccc1n2CCNC(C)C has a TGI [1] of 2410 nM, a GI50 [2] of 308 nM and a TGI [2] of 1810 nM. The GI50 [3] was 257 nM, the TGI [3] was 1130 nM and the GI50 [4] was 371 nM. The TGI [4] was 8090 nM, the GI50 [5] was 506 nM and the TGI [5] was 3910 nM. For the same compound, the GI50 [6] was 370 nM, the TGI [6] was 2900 nM and the GI50 [7] was 462 nM. It also gave a TGI [7] of 5560 nM, a GI50 [8] of 373 nM and a TGI [8] of 3870 nM. For the same compound, the GI50 [9] was 317 nM, the TGI [9] was 1760 nM and the GI50 [10] was 308 nM. It also gave a TGI [10] of 1050 nM, a GI50 [11] of 289 nM and a TGI [11] of 1790 nM. It also gave a GI50 [12] of 417 nM, a TGI [12] of 3330 nM and a GI50 [13] of 426 nM. It also gave a TGI [13] of 2620 nM, a GI50 [14] of 478 nM and a TGI [14] of 2020 nM. The GI50 [15] was 569 nM, the TGI [15] was 2230 nM and the GI50 [16] was 326 nM. It also gave a TGI [16] of 1470 nM, a GI50 [17] of 291 nM and a TGI [17] of 923 nM. For the same compound, the GI50 [18] was 1250 nM, the TGI [18] was 8760 nM and the GI50 [19] was 325 nM. For the same compound, the TGI [19] was 2070 nM, the GI50 [20] was 300 nM and the TGI [20] was 1620 nM. The GI50 [21] was 383 nM, the TGI [21] was 2410 nM and the GI50 [22] was 142 nM. The TGI [22] was 11400 nM, the GI50 [23] was 249 nM and the TGI [23] was 2340 nM. The GI50 [24] was 523 nM, the TGI [24] was 13000 nM and the GI50 [25] was 531 nM. It also gave a TGI [25] of 5020 nM, a GI50 [26] of 386 nM and a TGI [26] of 6050 nM. The GI50 [27] was 296 nM, the TGI [27] was 1310 nM and the GI50 [28] was 250 nM. The TGI [28] was 780 nM, the GI50 [29] was 200 nM and the TGI [29] was 704 nM.

— PubChem BioAssay (NCI)
